The values below come from ChEMBL document CHEMBL5331051, “Cationic, amphipathic small molecules based on a triazine-piperazine-triazine scaffold as a new class of antimicrobial agents” (Eur J Med Chem, 2022).

Converted amounts (≈) assume the structure as drawn. The source made the active and inactive calls. The calls are words filed in the database; no cut-off is given here. Positions of bridges follow the written chain, without caps; N, C: chain ends. Non-standard residues stand in square brackets, D forms with d. Residues, ends and D or L forms follow the SMILES beside them. *: point of attachment. Heptanoyl(6-Me) = CC(C)CCCCC(=O)*; dDab = NCC[C@@H](N)C(=O)O; Dab = NCC[C@H](N)C(=O)O

Data set [1] deals with Lipopolysaccharide (LPS). As to the kind of experiment: Binding affinity to Escherichia coli O111:B4 lipopolysaccharide assessed as suppression of FTIC labeled LPS binding to mouse RAW264.7 cells at 20 ug/ml pretreated with LPS followed by compound addition by flow cytometer assay (reference value: 67.4%). In kind it is cell-based. Particulars: dose 20.0 µg/ml. A general note: Flow cytometry measures light scatter and fluorescence of single cells or particles in a stream.

Data set [2] concerns Lipopolysaccharide (LPS). As to the kind of experiment: Binding affinity to Escherichia coli O111:B4 lipopolysaccharide assessed as suppression of FTIC labeled LPS binding to mouse RAW264.7 cells at 20 ug/ml pretreated LPS with cells for 1 hr followed by compound addition measured after 1 hr by flow cytometer assay (reference value: 48.12%). In kind it is cell-based. As to conditions: dose 20.0 µg/ml.

In another data set the test system is Escherichia coli. As to the kind of experiment: Antibacterial activity against Escherichia coli KCTC 1682 strain assessed as bacterial growth inhibition measured at 18 to 24 hrs by microdilution assay. In kind it is functional. Particulars: time 18-24 hrs. In general terms: Dilution methods test growth across graded concentrations, often in twofold steps.
Data set [3] relates to Pseudomonas aeruginosa. Nature of the data set: Antibacterial activity against Pseudomonas aeruginosa KCTC 1637 strain assessed as bacterial growth inhibition measured at 18 to 24 hrs by microdilution assay. Particulars: time 18-24 hrs. In kind it is functional.
Data set [4] concerns Staphylococcus epidermidis. Nature of the data set: Antibacterial activity against Staphylococcus epidermidis KCTC 1917 strain assessed as bacterial growth inhibition measured at 18 to 24 hrs by microdilution assay. Format: functional. As to conditions: time 18-24 hrs.
Data set [5] concerns Staphylococcus aureus. As to the kind of experiment: Antibacterial activity against Staphylococcus aureus KCTC 1621 strain assessed as bacterial growth inhibition measured at 18 to 24 hrs by microdilution assay. Format: functional. As to conditions: time 18-24 hrs.
Another data set deals with Erythrocyte. As to the kind of experiment: Hemolytic activity in sheep RBC assessed as minimal hemolytic concentration causing 10% hemolysis incubated for 1 hr by ELISA. In kind it is toxicity, cell-based, Ovis aries. For orientation: ELISA stands for enzyme-linked immunosorbent assay.
In data set [6] the test system is Staphylococcus aureus. As to the kind of experiment: Antibacterial activity against methicillin-resistant Staphylococcus aureus CCARM 3089 strain assessed as bacterial growth inhibition measured at 18 to 24 hrs by microdilution assay. Particulars: time 18-24 hrs. In kind it is functional.
The subject of data set [7] is Staphylococcus aureus. Nature of the data set: Antibacterial activity against methicillin-resistant Staphylococcus aureus CCARM 3090 strain assessed as bacterial growth inhibition measured at 18 to 24 hrs by microdilution assay. Format: functional. As to conditions: time 18-24 hrs.
Data set [8] deals with Staphylococcus aureus. As to the kind of experiment: Antibacterial activity against methicillin-resistant Staphylococcus aureus CCARM 3095 strain assessed as bacterial growth inhibition measured at 18 to 24 hrs by microdilution assay. Particulars: time 18-24 hrs. In kind it is functional.
Data set [9] relates to Pseudomonas aeruginosa. Nature of the data set: Antibacterial activity against multidrug-resistant Pseudomonas aeruginosa CCARM 2095 strain assessed as bacterial growth inhibition measured at 18 to 24 hrs by microdilution assay. Format: functional. As to conditions: time 18-24 hrs.
Data set [10] has as its system Pseudomonas aeruginosa. As to the kind of experiment: Antibacterial activity against multidrug-resistant Pseudomonas aeruginosa CCARM 2109 strain assessed as bacterial growth inhibition measured at 18 to 24 hrs by microdilution assay. Format: functional. Particulars: time 18-24 hrs.
The subject of the next data set is Enterococcus faecium. Nature of the data set: Antibacterial activity against vancomycin-resistant Enterococcus faecium ATCC 51559 strain assessed as bacterial growth inhibition measured at 18 to 24 hrs by microdilution assay. Format: functional. Particulars: time 18-24 hrs.
In data set [11] the test system is Pseudomonas aeruginosa. As to the kind of experiment: Synergistic antibacterial activity against multidrug-resistant Pseudomonas aeruginosa CCARM 2095 strain assessed as bacterial growth inhibition by checkerboard assay. Format: functional.
For data set [12], the system named is Pseudomonas aeruginosa. As to the kind of experiment: Additive antibacterial activity against multidrug-resistant Pseudomonas aeruginosa CCARM 2095 strain assessed as bacterial growth inhibition by checkerboard assay. Format: functional.
Data set [13] deals with Staphylococcus aureus. As to the kind of experiment: Antibacterial activity against methicillin-resistant Staphylococcus aureus CCARM 3089 strain assessed as bacterial growth inhibition by checkerboard assay. Format: functional.
The test system of data set [14] is Pseudomonas aeruginosa. As to the kind of experiment: Bactericidal activity against multidrug-resistant Pseudomonas aeruginosa CCARM 2095 measured after 24 hrs by time-kill kinetics assay. In kind it is functional, organism-based.
For data set [15], the system named is Pseudomonas aeruginosa. As to the kind of experiment: Bacteriostatic activity against multidrug-resistant Pseudomonas aeruginosa CCARM 2095 measured after 24 hrs by time-kill kinetics assay. In kind it is functional, organism-based.

In the case of `CC(C)CCCCC(=O)N[C@@H](CCN)C(=O)N[C@H](C(=O)N[C@@H](CCN)C(=O)N[C@H]1CCNC(=O)[C@H]([C@@H](C)O)NC(=O)[C@H](CCN)NC(=O)[C@H](CCN)NC(=O)[C@H](CC(C)C)NC(=O)[C@@H](Cc2ccccc2)NC(=O)[C@@H](CCN)NC1=O)[C@@H](C)O` ({Heptanoyl(6-Me)}-[Dab]T[Dab][Dab][dDab][dF]L[Dab][Dab]T; lactam 4-C), the Flu intensity in the data set with Lipopolysaccharide (LPS) [1] came to 12.3%; in the data set on Lipopolysaccharide (LPS) [2] it was 45.3%.
In the case of `NCCCN(CCCN)c1nc(NCc2ccccc2)nc(N2CC(Cc3ccccc3)N(c3nc(NCc4ccc5ccccc5c4)nc(N(CCCN)CCCN)n3)CC2Cc2ccccc2)n1` (stereo not drawn), the MIC (in general, the lowest concentration found to suppress growth) in the data set with Escherichia coli turned out to be 9.4 µM (≈ 8.87 µg/mL); with Pseudomonas aeruginosa [3], 18.7 µM (≈ 17.6 µg/mL); in data set [4], 4.7 µM (≈ 4.43 µg/mL); in the data set on Staphylococcus aureus [5] it was 4.7 µM (≈ 4.43 µg/mL). Moreover, the MHC with Erythrocyte worked out at 189.5 µM.
For the molecule `N=C(N)NCCCNc1nc(NCCCNC(=N)N)nc(N2CCN(c3nc(NCCCNC(=N)N)nc(NCCCNC(=N)N)n3)C(Cc3ccccc3)C2)n1` (stereo not drawn), the minimal inhibitory concentration (MIC) (in the data set with Escherichia coli; in the data set on Pseudomonas aeruginosa [3]; in [4]; in the data set with Staphylococcus aureus [5]) was 20.2 µM (≈ 16 µg/mL) each time. Moreover, the MHC with Erythrocyte was more than 322.6 µM.
As to `N=C(N)NCCN(CCNC(=N)N)c1nc(NCc2ccccc2)nc(N2CC(Cc3ccccc3)N(c3nc(NCc4ccccc4)nc(N(CCNC(=N)N)CCNC(=N)N)n3)CC2Cc2ccccc2)n1` (stereo not drawn), the MIC was 8.7 µM (≈ 8.75 µg/mL) in the data set with Escherichia coli, 8.7 µM (≈ 8.75 µg/mL) in the data set with Pseudomonas aeruginosa [3], 4.4 µM (≈ 4.42 µg/mL) in data set [4] and 4.4 µM (≈ 4.42 µg/mL) in the data set with Staphylococcus aureus [5]. Further, in the data set with Erythrocyte, the MHC is 124.5 µM.
For the molecule `Cc1onc(-c2ccccc2)c1C(=O)N[C@@H]1C(=O)N2[C@@H]1SC(C)(C)[C@@H]2C(=O)O` [OXACILLIN], the minimum inhibitory concentration (MIC) was 2550 µM (≈ 1020 µg/mL) in the data set on Staphylococcus aureus [6]; more than 5100 µM with Staphylococcus aureus [7]; more than 5100 µM with Staphylococcus aureus [8]; 5100 µM (≈ 2050 µg/mL) in the data set on Pseudomonas aeruginosa [9]; 5100 µM (≈ 2050 µg/mL) in the data set on Pseudomonas aeruginosa [10]; 2180 µM (≈ 873 µg/mL) in the data set with Enterococcus faecium. For the same molecule, the MIC in the data set with Pseudomonas aeruginosa [11], with Pseudomonas aeruginosa [12] and in the data set with Staphylococcus aureus [13] was 1020 µg/mL throughout. Moreover, the result with Pseudomonas aeruginosa [14] and in the data set on Pseudomonas aeruginosa [15] was inactive.
In the case of `NCCN(CCN)c1nc(NCc2ccccc2)nc(N2CCN(c3nc(NCc4ccc5ccccc5c4)nc(N(CCN)CCN)n3)C(Cc3ccccc3)C2)n1` (stereo not drawn), the MIC in the data set on Escherichia coli came out at 40 µM (≈ 31.9 µg/mL); in the data set with Pseudomonas aeruginosa [3] it was 20 µM (≈ 15.9 µg/mL); in [4] it was 5 µM (≈ 3.99 µg/mL); with Staphylococcus aureus [5], 5 µM (≈ 3.99 µg/mL). Further, the MHC in the data set with Erythrocyte is more than 320 µM.
As for `NCCNc1nc(NCCN)nc(N2CCN(c3nc(NCCN)nc(NCCN)n3)C(Cc3ccccc3)C2)n1` (stereo not drawn), the minimum inhibitory concentration (MIC) in the data set with Escherichia coli amounted to 56.4 µM (≈ 32 µg/mL); in the data set with Pseudomonas aeruginosa [3] it was 28.2 µM (≈ 16 µg/mL); in data set [4], 56.4 µM (≈ 32 µg/mL); in the data set with Staphylococcus aureus [5], 56.4 µM (≈ 32 µg/mL). In addition, in the data set on Erythrocyte, the MHC is more than 451.1 µM.
In the case of `NCCCNc1nc(NCCCN)nc(N2CC(Cc3ccccc3)N(c3nc(NCCCN)nc(NCCCN)n3)CC2Cc2ccccc2)n1` (stereo not drawn), the minimal inhibitory concentration (MIC) came out at 11.2 µM (≈ 7.99 µg/mL) in the data set with Escherichia coli, 22.4 µM (≈ 16 µg/mL) in the data set on Pseudomonas aeruginosa [3], 11.2 µM (≈ 7.99 µg/mL) in [4] and 11.2 µM (≈ 7.99 µg/mL) with Staphylococcus aureus [5]. For the same molecule, in the data set on Erythrocyte, the MHC is more than 358.4 µM.
As to `NCCCNc1nc(NCCCN)nc(N2CCN(c3nc(NCCCN)nc(NCCCN)n3)C(Cc3ccccc3)C2)n1` (stereo not drawn), the minimal inhibitory concentration (MIC) in the data set on Escherichia coli amounted to 51.2 µM (≈ 31.9 µg/mL); in the data set on Pseudomonas aeruginosa [3] it was 51.2 µM (≈ 31.9 µg/mL); in [4], 25.6 µM (≈ 15.9 µg/mL); with Staphylococcus aureus [5], 25.6 µM (≈ 15.9 µg/mL). Moreover, the MHC in the data set on Erythrocyte is more than 409.6 µM.
For the molecule `N=C(N)NCCN(CCNC(=N)N)c1nc(NCc2ccccc2)nc(N2CCN(c3nc(NCc4ccc5ccccc5c4)nc(N(CCNC(=N)N)CCNC(=N)N)n3)C(Cc3ccccc3)C2)n1` (stereo not drawn), the MIC was determined as 16.6 µM (≈ 16 µg/mL) in the data set with Escherichia coli, 16.6 µM (≈ 16 µg/mL) with Pseudomonas aeruginosa [3], 4.1 µM (≈ 3.96 µg/mL) in data set [4] and 4.1 µM (≈ 3.96 µg/mL) in the data set on Staphylococcus aureus [5]. Moreover, the MHC in the data set on Erythrocyte came to 37.3 µM.
As for `NCCCCNc1nc(NCCCCN)nc(N2CCN(c3nc(NCCCCN)nc(NCCCCN)n3)C(Cc3ccccc3)C2)n1` (stereo not drawn), the MIC in the data set with Escherichia coli was determined as 47 µM (≈ 31.9 µg/mL); with Pseudomonas aeruginosa [3], 47 µM (≈ 31.9 µg/mL); in data set [4], 23.5 µM (≈ 16 µg/mL); with Staphylococcus aureus [5] it was 23.5 µM (≈ 16 µg/mL). In addition, in the data set with Erythrocyte, the MHC was more than 376.3 µM.
